Laboratory results published in PubChem BioAssay (NCI).
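How tested: cells in 96-well plates exposed to compound for 48 hours at five concentrations. Definition used: TGI = concentration required for complete inhibition of growth.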

How the values were obtained:
Experiment in all cases: inhibition of tumour cell growth, NCI panel, 48 h
786-0 renal = system: 786-0 renal
A498 renal = system: A498 renal
A549 NSCLC = system: A549 NSCLC
ACHN renal = system: ACHN renal
BT-549 breast = system: BT-549 breast
CAKI-1 renal = system: CAKI-1 renal
CCRF-CEM leukemia = system: CCRF-CEM leukemia
COLO 205 colon = system: COLO 205 colon
DU-145 prostate = system: DU-145 prostate
EKVX NSCLC = system: EKVX NSCLC
HCC-2998 colon = system: HCC-2998 colon
HCT-116 colon = system: HCT-116 colon
HCT-15 colon = system: HCT-15 colon
HL-60(TB) leukemia = system: HL-60(TB) leukemia
HOP-62 NSCLC = system: HOP-62 NSCLC
HOP-92 NSCLC = system: HOP-92 NSCLC
HS 578T breast = system: HS 578T breast
HT29 colon = system: HT29 colon
IGROV1 ovarian = system: IGROV1 ovarian
K-562 leukemia = system: K-562 leukemia
KM12 colon = system: KM12 colon
LOX IMVI melanoma = system: LOX IMVI melanoma
M14 melanoma = system: M14 melanoma
MALME-3M melanoma = system: MALME-3M melanoma
MCF7 breast = system: MCF7 breast
MDA-MB-231 breast = system: MDA-MB-231 breast
MDA-MB-435 = system: MDA-MB-435
MDA-N = system: MDA-N
MOLT-4 leukemia = system: MOLT-4 leukemia
NCI-H226 lung = system: NCI-H226 lung
NCI-H23 lung = system: NCI-H23 lung
NCI-H460 lung = system: NCI-H460 lung
NCI/ADR-RES ovarian = system: NCI/ADR-RES ovarian
OVCAR-3 ovarian = system: OVCAR-3 ovarian
OVCAR-4 ovarian = system: OVCAR-4 ovarian
OVCAR-5 ovarian = system: OVCAR-5 ovarian
OVCAR-8 ovarian = system: OVCAR-8 ovarian
PC-3 prostate = system: PC-3 prostate
RPMI-8226 leukemia = system: RPMI-8226 leukemia
RXF 393 renal = system: RXF 393 renal
SF-268 CNS = system: SF-268 CNS
SF-295 CNS = system: SF-295 CNS
SF-539 CNS = system: SF-539 CNS
SK-MEL-2 melanoma = system: SK-MEL-2 melanoma
SK-MEL-28 melanoma = system: SK-MEL-28 melanoma
SK-MEL-5 melanoma = system: SK-MEL-5 melanoma
SK-OV-3 ovarian = system: SK-OV-3 ovarian
SN12C renal = system: SN12C renal
SNB-19 CNS = system: SNB-19 CNS
SNB-75 CNS = system: SNB-75 CNS
SR leukemia = system: SR leukemia
SW-620 colon = system: SW-620 colon
T-47D breast = system: T-47D breast
TK-10 renal = system: TK-10 renal
U251 CNS = system: U251 CNS
UACC-257 melanoma = system: UACC-257 melanoma
UACC-62 melanoma = system: UACC-62 melanoma

Measured: TGI

Nc1nc(Cl)nc(NCc2ccccc2)n1
> 100 µM: all assays above
